Test results: ChEMBL document CHEMBL5725333, “Fumagillol heterocyclic compounds and methods of making and using same” (2017)

Molecular target: Methionine aminopeptidase 2 (Homo sapiens, UniProt P50579)
Experiment: 10 mM stock solutions of compounds were prepared in 100% DMSO and further diluted in 100% DMSO required concentration to 1 mM stocks. The stock compound solutions and DMSO vehicle controls were diluted to target final compound concentrations using assay buffer to a final concentration of 50 mM HEPES containing 100 mM NaCl, pH adjusted to 7.5. The MAS peptide was formulated to a 7.5 mM stock in distilled water and prior to use further diluted 1:4. […] 40 μl of enzyme was mixed with 100 μl of MnCl2 then further diluted in assay buffer to a final concentration of 16 μg/ml. To test for compound effect on MetAP2 enzyme activity, 5 μl of test compound, 10 μl of MAS substrate/amino acid oxidase mixture, 10 μl of MetAP2 was added to test wells in a 384 well black plate with blank wells containing no enzyme, replaced with 10 μl of assay buffer. All compounds were tested in duplicate on two occasions on the same day. […] The plate was sealed with a TopSeal A cover and mixed briefly on an orbital mixer at 900 rpm. The plate was incubated for a further 25 minutes at 25° C. A 5× stock of Amplex buffer was prepared (0.25M sodium phosphate, pH 7.4) and stored at 4° C. […] 25 μl detection reagent was added to each well of the test plate, which was re-sealed and mixed briefly on an orbital shaker.

Methionine aminopeptidase 2, sequence (P50579 whole entry): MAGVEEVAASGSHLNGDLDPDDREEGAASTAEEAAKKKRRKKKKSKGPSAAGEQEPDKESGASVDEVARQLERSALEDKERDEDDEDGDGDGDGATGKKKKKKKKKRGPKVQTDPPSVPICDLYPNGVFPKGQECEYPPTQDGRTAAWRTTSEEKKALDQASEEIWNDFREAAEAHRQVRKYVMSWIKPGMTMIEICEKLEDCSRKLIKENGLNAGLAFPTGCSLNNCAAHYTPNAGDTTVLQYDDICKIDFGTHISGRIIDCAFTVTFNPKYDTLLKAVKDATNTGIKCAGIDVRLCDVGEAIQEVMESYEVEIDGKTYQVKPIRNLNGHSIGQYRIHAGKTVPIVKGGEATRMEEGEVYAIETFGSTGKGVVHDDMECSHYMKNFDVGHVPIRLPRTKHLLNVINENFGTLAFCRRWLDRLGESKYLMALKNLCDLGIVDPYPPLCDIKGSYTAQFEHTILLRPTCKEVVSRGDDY

| IC50 | Compound |
| --- | --- |
| < 50 nM | CCN(CC)CCNC(=O)OCC1CN(C(=O)O[C@@H]2CC[C@]3(CO3)[C@@H]([C@@]3(C)O[C@@H]3CC=C(C)C)[C@@H]2OC)C1 |
| < 50 nM | CO[C@@H]1[C@H](OC(=O)N2CC(CCN3CCCC3)C2)CC[C@]2(CO2)[C@H]1[C@@]1(C)O[C@@H]1CC=C(C)C |
